Experimental data: ChEMBL document CHEMBL1201862, “PubChem BioAssay data set” (2004)
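Test compounds were applied to cells in 96-well plates for 48 hours at 5 doses. GI50 marks 50% less growth.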 Calls of active or inactive are those of the source. Cut-off read from the data, not from the text of the source: active = GI50 up to about 1.1 µM and inactive = higher.

Legend:
Assay in all cases: NCI anticancer screen, dose series, 48 h
786-0 = tested on: 786-0
A498 = tested on: A498
A549 = tested on: A549
ACHN = tested on: ACHN
BT-549 = tested on: BT-549
CAKI-1 = tested on: CAKI-1
CCRF-CEM = tested on: CCRF-CEM
COLO 205 = tested on: COLO 205
DU-145 = tested on: DU-145
EKVX = tested on: EKVX
HCT-116 = tested on: HCT-116
HCT-15 = tested on: HCT-15
HL-60 = tested on: HL-60
HOP-62 = tested on: HOP-62
HOP-92 = tested on: HOP-92
HT-29 = tested on: HT-29
Hs-578T = tested on: Hs-578T
IGROV-1 = tested on: IGROV-1
K562 = tested on: K562
KM12 = tested on: KM12
LOX IMVI = tested on: LOX IMVI
M14 = tested on: M14
MCF7 = tested on: MCF7
MDA-MB-231 = tested on: MDA-MB-231
MDA-MB-435 = tested on: MDA-MB-435
MDA-N = tested on: MDA-N
MOLT-4 = tested on: MOLT-4
Malme-3M = tested on: Malme-3M
NCI-H226 = tested on: NCI-H226
NCI-H23 = tested on: NCI-H23
NCI-H460 = tested on: NCI-H460
NCI-H522 = tested on: NCI-H522
NCI/ADR-RES = tested on: NCI/ADR-RES
OVCAR-3 = tested on: OVCAR-3
OVCAR-4 = tested on: OVCAR-4
OVCAR-5 = tested on: OVCAR-5
OVCAR-8 = tested on: OVCAR-8
PC-3 = tested on: PC-3
RXF 393 = tested on: RXF 393
SF-268 = tested on: SF-268
SF-295 = tested on: SF-295
SK-MEL-28 = tested on: SK-MEL-28
SK-MEL-2 = tested on: SK-MEL-2
SK-MEL-5 = tested on: SK-MEL-5
SK-OV-3 = tested on: SK-OV-3
SN12C = tested on: SN12C
SNB-19 = tested on: SNB-19
SNB-75 = tested on: SNB-75
SW-620 = tested on: SW-620
T47D = tested on: T47D
TK-10 = tested on: TK-10
U-251 = tested on: U-251
UACC-257 = tested on: UACC-257
UACC-62 = tested on: UACC-62
UO-31 = tested on: UO-31
HCC 2998 = tested on: HCC 2998
RPMI-8226 = tested on: RPMI-8226
SF-539 = tested on: SF-539

Measured: GI50

C1=C2C3=[N+](CCCC3)CC2Cc2ccsc21 (stereo unspecified)
> 100 µM: HCT-15
inactive: 786-0 > 100 µM | A498 52.8 µM | A549 25 µM | ACHN > 100 µM | BT-549 81.3 µM | CAKI-1 > 100 µM | CCRF-CEM > 100 µM | COLO 205 > 100 µM | DU-145 > 100 µM | EKVX 52.6 µM | HCT-116 > 100 µM | HL-60 76.2 µM | HOP-62 > 100 µM | HOP-92 69.5 µM | HT-29 > 100 µM | Hs-578T > 100 µM | IGROV-1 > 100 µM | K562 > 100 µM | KM12 42.4 µM | LOX IMVI > 100 µM | M14 71.3 µM | MCF7 > 100 µM | MDA-MB-231 > 100 µM | MDA-MB-435 > 100 µM | MDA-N > 100 µM | MOLT-4 > 100 µM | Malme-3M 63 µM | NCI-H226 > 100 µM | NCI-H23 > 100 µM | NCI-H460 38 µM | NCI-H522 62.8 µM | NCI/ADR-RES > 100 µM | OVCAR-3 84.1 µM | OVCAR-4 84.3 µM | OVCAR-5 > 100 µM | OVCAR-8 82.6 µM | PC-3 45.1 µM | RXF 393 65 µM | SF-268 > 100 µM | SF-295 55.3 µM | SK-MEL-28 > 100 µM | SK-MEL-2 > 100 µM | SK-MEL-5 66.5 µM | SK-OV-3 > 100 µM | SN12C > 100 µM | SNB-19 56.2 µM | SNB-75 93.8 µM | SW-620 > 100 µM | T47D 22.8 µM | TK-10 87.7 µM | U-251 28.7 µM | UACC-257 33.9 µM | UACC-62 > 100 µM | UO-31 > 100 µM

CC(=N/NC(=S)N1CCCCCC1)/C(C)=N\NC(=S)N1CCCCCC1
4.34 µM: HCT-15
inactive: 786-0 4.54 µM | A498 1.78 µM | A549 5.3 µM | ACHN 3.38 µM | BT-549 5.27 µM | CAKI-1 4.91 µM | COLO 205 5.43 µM | DU-145 3.21 µM | EKVX 3.85 µM | HCC 2998 3.12 µM | HCT-116 5.08 µM | HOP-62 4.98 µM | HOP-92 1.32 µM | HT-29 2.63 µM | Hs-578T 3.87 µM | IGROV-1 3.84 µM | K562 13.2 µM | KM12 4.59 µM | LOX IMVI > 10 µM | M14 5.25 µM | MCF7 4.7 µM | MDA-MB-231 7.98 µM | MDA-MB-435 1.83 µM | MDA-N 6.55 µM | MOLT-4 > 100 µM | Malme-3M 5.5 µM | NCI-H226 3.42 µM | NCI-H23 4.83 µM | NCI-H460 4.38 µM | NCI-H522 4.14 µM | NCI/ADR-RES 5.25 µM | OVCAR-3 5.6 µM | OVCAR-4 1.79 µM | OVCAR-5 7.89 µM | OVCAR-8 15.7 µM | PC-3 5.86 µM | RPMI-8226 5.66 µM | RXF 393 3.77 µM | SF-268 3.45 µM | SF-295 4.93 µM | SF-539 20.7 µM | SK-MEL-28 1.88 µM | SK-MEL-2 1.97 µM | SK-MEL-5 4.86 µM | SK-OV-3 3.88 µM | SN12C 1.91 µM | SNB-19 6.18 µM | SNB-75 5.09 µM | SW-620 2.37 µM | T47D 1.75 µM | TK-10 4.34 µM | U-251 2.43 µM | UACC-257 5.2 µM | UACC-62 4.29 µM | UO-31 3.75 µM
